Data published in patent US20240109887A1 (Viva Star Biosciences (Suzhou) Co., Ltd., priority 2021, published 2024).

Legend:
KRAS G12C/SOS1 = target: T1, KRAS G12C/SOS1 (Homo sapiens, UniProt Q07889); assay: biochemical
T1 sequence (Q07889 1-1333): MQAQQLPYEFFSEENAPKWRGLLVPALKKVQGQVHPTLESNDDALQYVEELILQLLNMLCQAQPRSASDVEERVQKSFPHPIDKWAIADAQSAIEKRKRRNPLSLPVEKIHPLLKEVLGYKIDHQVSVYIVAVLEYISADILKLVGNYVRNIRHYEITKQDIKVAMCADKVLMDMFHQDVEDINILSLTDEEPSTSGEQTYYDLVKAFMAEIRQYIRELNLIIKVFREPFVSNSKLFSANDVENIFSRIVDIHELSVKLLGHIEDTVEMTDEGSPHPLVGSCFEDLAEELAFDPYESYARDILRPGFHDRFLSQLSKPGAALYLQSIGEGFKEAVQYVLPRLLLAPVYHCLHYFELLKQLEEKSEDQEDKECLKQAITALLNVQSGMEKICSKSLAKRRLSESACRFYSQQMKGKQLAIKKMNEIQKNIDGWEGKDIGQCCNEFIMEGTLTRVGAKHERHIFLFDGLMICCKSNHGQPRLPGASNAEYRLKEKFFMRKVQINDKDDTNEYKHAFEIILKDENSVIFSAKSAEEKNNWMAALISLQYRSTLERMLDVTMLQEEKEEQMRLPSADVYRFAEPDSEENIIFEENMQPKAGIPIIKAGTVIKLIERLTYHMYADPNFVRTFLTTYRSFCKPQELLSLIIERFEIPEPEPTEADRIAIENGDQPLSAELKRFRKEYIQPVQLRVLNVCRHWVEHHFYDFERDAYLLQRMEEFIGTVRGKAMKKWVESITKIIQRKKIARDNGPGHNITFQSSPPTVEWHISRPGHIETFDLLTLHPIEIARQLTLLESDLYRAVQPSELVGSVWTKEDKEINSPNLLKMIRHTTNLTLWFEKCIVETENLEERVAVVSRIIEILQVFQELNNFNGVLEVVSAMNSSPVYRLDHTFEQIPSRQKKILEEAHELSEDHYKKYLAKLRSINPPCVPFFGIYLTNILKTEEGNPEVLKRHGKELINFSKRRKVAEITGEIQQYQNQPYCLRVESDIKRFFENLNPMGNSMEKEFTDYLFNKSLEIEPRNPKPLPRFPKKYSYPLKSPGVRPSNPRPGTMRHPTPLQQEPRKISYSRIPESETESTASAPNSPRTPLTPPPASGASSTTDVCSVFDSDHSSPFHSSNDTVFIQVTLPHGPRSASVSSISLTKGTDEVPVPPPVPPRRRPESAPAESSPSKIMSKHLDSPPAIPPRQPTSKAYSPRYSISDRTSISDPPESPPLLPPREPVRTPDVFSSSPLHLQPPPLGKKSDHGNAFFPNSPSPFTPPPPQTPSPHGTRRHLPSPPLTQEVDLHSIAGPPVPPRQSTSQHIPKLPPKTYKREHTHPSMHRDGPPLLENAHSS

KRAS G12D/SOS1 [1] = target: T2, KRAS G12D/SOS1 (Homo sapiens, UniProt Q07889); assay: biochemical
T2 sequence (Q07889 1-1333): T1 sequence (Q07889 1-1333)

KRAS-WT/SOS1 [2] = target: T3, KRAS-WT/SOS1 (Homo sapiens, UniProt Q07889); assay: biochemical
T3 sequence (Q07889 1-1333): T1 sequence (Q07889 1-1333)

KRAS-WT/SOS1 [3] = target: T3, KRAS-WT/SOS1; assay: KRAS-WT/SOS1 binding assay (HTRF); conditions: Tag2-KRAS-WT with Tag1-SOS1, 10 μM GTP
KRAS G12D/SOS1 [4] = target: T2, KRAS G12D/SOS1; assay: KRAS G12D/SOS1 binding assay (HTRF); conditions: Tag2-KRAS G12D with Tag1-SOS1, 10 μM GTP

SMILES | IC50 (KRAS G12C/SOS1) | IC50 (KRAS G12D/SOS1 [1]) | IC50 (KRAS-WT/SOS1 [2]) | also measured
C[C@@H](NC(=O)c1cn(C2CCOCC2)c(=O)c2c[nH]nc12)c1cccc(C(F)(F)CO)c1 [Example 1, (R)—N-(1-(3-(1,1-difluoro-2-hydroxyethyl)phenyl)ethyl)-4-oxo-5-(tetrahydro-2H-pyran-4-yl)-4,5-dihydro-2H-pyrazolo[4,3-c]pyridine-7-carboxamide] | < 0.1 µM | < 0.1 µM |  | 
C[C@@H](NC(=O)c1cn(C2CCOCC2)c(=O)c2c[nH]nc12)c1cccc(C(F)F)c1F [Example 3, (R)-N-(1-(3-(difluoromethyl)-2-fluorophenyl)ethyl)-4-oxo-5-(tetrahydro-2H-pyran-4-yl)-4,5-dihydro-2H-pyrazolo[4,3-c]pyridine-7-carboxamide] | < 0.1 µM | < 0.1 µM | < 0.1 µM | 
C[C@@H](NC(=O)c1cn(C2(C)CC2)c(=O)c2cn[nH]c12)c1cccc(C(F)(F)F)n1 [Example 8, (R)-5-(1-methylcyclopropyl)-4-oxo-N-(1-(6-(trifluoromethyl)pyridin-2-yl)ethyl)-4,5-dihydro-1H-pyrazolo[4,3-c]pyridine-7-carboxamide] |  |  |  | Activity Data in Kras: SOS1 Assay, Wild Type (KRAS-WT/SOS1 [3]): C (C: 500~5 μM); Activity Data in Kras: SOS1 Assay, G12D (KRAS G12D/SOS1 [4]): C (C: 500~5 μM)
C[C@@H](NC(=O)c1cn([C@H]2CC[C@@H](C(=O)N(C)CCO)CC2)c(=O)c2c[nH]nc12)c1cccc2c1CCC2(F)F [Example 11, N—((R)-1-(1,1-difluoro-2,3-dihydro-1H-inden-4-yl)ethyl)-5-((1s,4S)-4-((2-hydroxyethyl)(methyl)carbamoyl)cyclohexyl)-4-oxo-4,5-dihydro-2H-pyrazolo[4,3-c]pyridine-7-carboxamide] |  |  |  | Activity Data in Kras: SOS1 Assay, Wild Type (KRAS-WT/SOS1 [3]): C (C: 500~5 μM); Activity Data in Kras: SOS1 Assay, G12D (KRAS G12D/SOS1 [4]): C (C: 500~5 μM)
COc1c(C2CCOCC2)cc(C(=O)N[C@H](C)c2cccc3c2CCC3(F)F)c2n[nH]cc12 [Example 16, N-[(1R)-1-(1,1-difluoro-2,3-dihydro-1H-inden-4-yl)ethyl]-4-methoxy-5-(oxan-4-yl)-2H-indazole-7-carboxamide] | 0.1 to 0.5 µM |  |  | 
COc1c(-c2ccc(=O)n(C)c2)cc(C(=O)N[C@H](C)c2cccc3c2CCC3(F)F)c2n[nH]cc12 [Example 17, N-[(1R)-1-(1,1-difluoro-2,3-dihydro-1H-inden-4-yl)ethyl]-4-methoxy-5-(1-methyl-6-oxo-1,6-dihydropyridin-3-yl)-2H-indazole-7-carboxamide] | < 0.1 µM |  |  | 
Cc1nc(N[C@H](C)c2cccc(C(F)(F)CO)c2)c2c(n1)N(C)C(=O)N(C1CCOCC1)C2 [Example 25, (R)-5-((1-(3-(1,1-difluoro-2-hydroxyethyl)phenyl)ethyl)amino)-1,7-dimethyl-3-(tetrahydro-2H-pyran-4-yl)-3,4-dihydropyrimido[4,5-d]pyrimidin-2(1H)-one] | 0.1 to 0.5 µM |  | 0.1 to 0.5 µM | 
Cc1nc(N[C@H](C)c2cccc3c2CCC3(F)F)c2c(n1)N(C)C(=O)N(C1CCOCC1)C2 [Example 26, (R)-5-((1-(1,1-difluoro-2,3-dihydro-1H-inden-4-yl)ethyl)amino)-1,7-dimethyl-3-(tetrahydro-2H-pyran-4-yl)-3,4-dihydropyrimido[4,5-d]pyrimidin-2(1H)-one] | 0.1 to 0.5 µM |  |  | 
COc1c(OC2CC(F)(F)C2)cc(C(=O)N[C@H](C)c2cccc3c2CCC3(F)F)c2n[nH]cc12 [Example 31, (R)-N-(1-(1,1-difluoro-2,3-dihydro-1H-inden-4-yl)ethyl)-5-(3,3-difluorocyclobutoxy)-4-methoxy-2H-indazole-7-carboxamide] |  |  |  | Activity Data in Kras: SOS1 Assay, Wild Type (KRAS-WT/SOS1 [3]): C (C: 500~5 μM); Activity Data in Kras: SOS1 Assay, G12D (KRAS G12D/SOS1 [4]): C (C: 500~5 μM)
COc1c(C2CCNCC2)cc(C(=O)N[C@H](C)c2cccc(C(F)(F)CO)c2)c2[nH]ncc12 [Example 35, N-[(1R)-1-[3-(1,1-difluoro-2-hydroxyethyl)phenyl]ethyl]-4-methoxy-5-(piperidin-4-yl)-1H-indazole-7-carboxamide] |  | < 0.1 µM | < 0.1 µM | 
COc1c(C2CCCNC2)cc(C(=O)N[C@H](C)c2cccc(C(F)(F)CO)c2)c2[nH]ncc12 (stereo partly drawn) [Example 36, N—((R)-1-(3-(1,1-difluoro-2-hydroxyethyl)phenyl)ethyl)-4-methoxy-5-(piperidin-3-yl)-1H-indazole-7-carboxamide] |  | < 0.1 µM | < 0.1 µM | 
COc1c(C2CCCN(C)C2)cc(C(=O)N[C@H](C)c2cccc(C(F)(F)CO)c2)c2[nH]ncc12 (stereo partly drawn) [Example 37, N—((R)-1-(3-(1,1-difluoro-2-hydroxyethyl)phenyl)ethyl)-4-methoxy-5-(1-methylpiperidin-3-yl)-1H-indazole-7-carboxamide] |  | < 0.1 µM | < 0.1 µM | 
C[C@@H](NC(=O)c1cn(C2CCOCC2)c(=O)c2cc[nH]c12)c1cccc2c1CCC2(F)F [Example 38, (R)—N-(1-(1,1-difluoro-2,3-dihydro-1H-inden-4-yl)ethyl)-4-oxo-5-(tetrahydro-2H-pyran-4-yl)-4,5-dihydro-1H-pyrrolo[3,2-c]pyridine-7-carboxamide] | < 0.1 µM |  |  | 
C[C@@H](NC(=O)c1cn(C2CCOCC2)c(=O)c2cc[nH]c12)c1cccc(C(F)(F)CO)c1 [Example 39, (R)—N-(1-(3-(1,1-difluoro-2-hydroxyethyl)phenyl)ethyl)-4-oxo-5-(tetrahydro-2H-pyran-4-yl)-4,5-dihydro-1H-pyrrolo[3,2-c]pyridine-7-carboxamide] | < 0.1 µM |  |  | 
C[C@@H](NC(=O)c1cn(C2CCOCC2)c(=O)c2cc[nH]c12)c1cccc(C(F)F)c1F [Example 40, (R)—N-(1-(3-(difluoromethyl)-2-fluorophenyl)ethyl)-4-oxo-5-(tetrahydro-2H-pyran-4-yl)-4,5-dihydro-1H-pyrrolo[3,2-c]pyridine-7-carboxamide] | < 0.1 µM |  |  | 
C[C@@H](NC(=O)c1cn(C2(C)CC2)c(=O)c2cc[nH]c12)c1cccc2c1CCC2(F)F [Example 41, (R)—N-(1-(1,1-difluoro-2,3-dihydro-1H-inden-4-yl)ethyl)-5-(1-methylcyclopropyl)-4-oxo-4,5-dihydro-1H-pyrrolo[3,2-c]pyridine-7-carboxamide] |  | < 0.1 µM | < 0.1 µM | 
C[C@@H](NC(=O)c1cn(C2(C)CC2)c(=O)c2cc[nH]c12)c1cccc(C(F)(F)CO)c1 [Example 42, (R)—N-(1-(3-(1,1-difluoro-2-hydroxyethyl)phenyl)ethyl)-5-(1-methylcyclopropyl)-4-oxo-4,5-dihydro-1H-pyrrolo[3,2-c]pyridine-7-carboxamide] |  | < 0.1 µM | < 0.1 µM | 
COc1c(N2CCOCC2)nc(C(=O)N[C@H](C)c2cccc3c2CCC3(F)F)c2n[nH]cc12 [Example 44, (R)—N-(1-(1,1-difluoro-2,3-dihydro-1H-inden-4-yl)ethyl)-4-methoxy-5-morpholino-2H-pyrazolo[3,4-c]pyridine-7-carboxamide] |  |  |  | Activity Data in Kras: SOS1 Assay, Wild Type (KRAS-WT/SOS1 [3]): C (C: 500~5 μM); Activity Data in Kras: SOS1 Assay, G12D (KRAS G12D/SOS1 [4]): C (C: 500~5 μM)
